Data on 13 molecules can be found in US20240148821A1, “PHARMACEUTICAL USE OF CYCLIC PEPTIDE COMPOUND” (CHUGAI SEIYAKU KABUSHIKI KAISHA, priority 2021, published 2024).

Numbered stars: 1 amine (or outer) side, 2 acyl side, 3 side chain; on linkers, the order of the positions; unused ones are H or OH. Bridge positions count the residues as written; N and C are the ends. Square brackets hold non-standard residues; d marks the D form. Peptide text beside a SMILES is read from it. * marks the point of attachment. hPhe(3,5-F2-4-CF3) = N[C@@H](CCc1cc(F)c(C(F)(F)F)c(F)c1)C(=O)O; hPhe(3-Cl-4-CF3) = N[C@@H](CCc1ccc(C(F)(F)F)c(Cl)c1)C(=O)O; NMePhe(4-CF3) = CN[C@@H](Cc1ccc(C(F)(F)F)cc1)C(=O)O; X105 = C[C@@](Cc1cccc(I)c1)(N[*:1])C(=O)[*:2]; NMePhe(4-Cl) = CN[C@@H](Cc1ccc(Cl)cc1)C(=O)O; NMePhe(4-F) = CN[C@@H](Cc1ccc(F)cc1)C(=O)O; NMedβ3hAla = C[C@H](CC(=O)[*:2])N(C)[*:1]; X72 = O=C([C@@H]1Cc2ccccc2N1[*:1])[*:2]; Phe(3-I) = N[C@@H](Cc1cccc(I)c1)C(=O)O; Phe(4-F) = N[C@@H](Cc1ccc(F)cc1)C(=O)O; Pro(4,4-F2) = O=C(O)[C@@H]1CC(F)(F)CN1; NMeY = CN[C@@H](Cc1ccc(O)cc1)C(=O)O; NMeCha = CN[C@@H](CC1CCCCC1)C(=O)O; Gly(N-(CH2)2OEt) = CCOCCNCC(=O)O; NMeChg = CN[C@H](C(=O)O)C1CCCCC1; NMeI = CC[C@H](C)[C@H](NC)C(=O)O; NMeD = CN[C@@H](CC(=O)O)C(=O)O; NMeL = CN[C@@H](CC(C)C)C(=O)O; dNMeAbu = CC[C@@H](NC)C(=O)O; NMeV = CN[C@H](C(=O)O)C(C)C; d(β3hA) = C[C@@H](N)CC(=O)O; NMeS = CN[C@@H](CO)C(=O)O; NMeA = CN[C@@H](C)C(=O)O; NMeAib = CNC(C)(C)C(=O)O; Nle = CCCC[C@H](N)C(=O)O; Piperidide = C1CCN(*)CC1; Pra = C#CC[C@H](N)C(=O)O; Ac5c = NC1(C(=O)O)CCCC1; Aze = O=C(O)[C@@H]1CCN1; Nva = CCC[C@H](N)C(=O)O; CH2CMe2OH = CC(C)(O)C*; Aib = CC(C)(N)C(=O)O; Isopentyl = CC(C)CC*; NEtG = CCNCC(=O)O; βAla = NCCC(=O)O; CF3 = FC(F)(F)*; Sar = CNCC(=O)O

In the experiment the test system is Human pancreatic cancer cell line AsPC-1 (G12D mutation Kras). As to the kind of experiment: AsPC-1 cell growth inhibition (AsPC-1 CGI). The class given is cell-based. Conditions: read-out: AsPC-1 cell growth inhibition, 50% growth inhibitory concentration (IC50 value); 96 hours, CellTiter-Glo, values classified in ranges. For orientation: Cellular ATP, detected with luciferase, serves as a proxy for viable cell number.
Method: Test compounds were serially dilated with dimethyl sulfoxide, and 200 nL was then dispensed to a U-bottom 96-well plate using Labcyte Echo. […] The cell suspension was dispensed to a. plate containing a test compound at 100 μL per well and incubated at 37° C. in a 5% carbon dioxide gas incubator. 96 hours later, 80 μL of CellTiter-Glo (Promega) was added to each well and fluorescence was measured.
Turning to `CCC[C@@H]1NC(=O)[C@H](CC(C)C)N(C)C(=O)C[C@@H](C(=O)N2CCCCC2)N(C)C(=O)[C@H](C2CCCCC2)N(C)C(=O)C2(CCCC2)NC(=O)[C@@H]2CCCN2C(=O)[C@H](CCc2ccc(C(F)(F)F)c(Cl)c2)NC(=O)CN(C)C(=O)[C@H](CC2CCCCC2)N(C)C(=O)CN(C)C(=O)CN(C)C1=O` [Compound 495] ([NMeL][Nva][Sar][Sar][NMeCha][Sar][hPhe(3-Cl-4-CF3)]P[Ac5c][NMeChg][NMeD]-Piperidide; lactam N-11), the IC50 is over 500 nM.

On to `CCOCCN1CC(=O)N(C)[C@@H](CC2CCCCC2)C(=O)N(C)CC(=O)N[C@@H](CCc2ccc(C(F)(F)F)c(Cl)c2)C(=O)N2CCC[C@H]2C(=O)NC2(CCCC2)C(=O)N(C)[C@@H](C(C)C)C(=O)N[C@H](C)CC(=O)N(C)[C@@H](CC(C)C)C(=O)N[C@@H]([C@@H](C)CC)C(=O)N(C)CC1=O` [Compound 864] (cyclo([Ac5c][NMeV][d(β3hA)][NMeL]I[Sar][Gly(N-(CH2)2OEt)][NMeCha][Sar][hPhe(3-Cl-4-CF3)]P)), for which the IC50 is over 500 nM.

For `CC[C@H](C)[C@@H]1NC(=O)[C@H](CC(C)C)N(C)C(=O)C[C@@H](C(=O)N2CCCCC2)N(C)C(=O)[C@H](C(C)C)NC(=O)C2(CCCC2)NC(=O)[C@@H]2CCCN2C(=O)[C@H](CCc2ccc(C(F)(F)F)c(Cl)c2)NC(=O)CN(C)C(=O)[C@H](CC2CCCCC2)N(C)C(=O)[C@@H]2CCN2C(=O)[C@H](C)N(C)C1=O` [Compound 1106] ([NMeL]I[NMeA][Aze][NMeCha][Sar][hPhe(3-Cl-4-CF3)]P[Ac5c]V[NMeD]-Piperidide; lactam N-11), the IC50 is over 500 nM.

Consider `C#CC[C@@H]1NC(=O)[C@H](Cc2cccc(I)c2)NC(=O)CN(C)C(=O)[C@H](Cc2ccc(OC(F)(F)F)cc2)N(C)C(=O)[C@@H]2CCN2C(=O)[C@H](C)N(C)C(=O)[C@H]([C@@H](C)CC)NC(=O)[C@H](CC(C)C)N(C)C(=O)C[C@@H](C(=O)N2CCCCC2)N(C)C(=O)[C@H](CC(C)C)NC(=O)C(C)(C)N(C)C1=O` [Compound 1288] ([NMeL]I[NMeA][Aze][NMeY](CF3)[Sar][Phe(3-I)][Pra][NMeAib]L[NMeD]-Piperidide; lactam N-11), for which the IC50 was over 500 nM.

Regarding `CCCC[C@@H]1NC(=O)[C@H](Cc2ccc(F)cc2)NC(=O)CN(C)C(=O)[C@H](Cc2ccc(Cl)cc2)N(C)C(=O)CN(C)C(=O)CN(C)C(=O)[C@H]([C@@H](C)CC)NC(=O)[C@H](CC(C)C)N(C)C(=O)C[C@@H](C(=O)N2CCCCC2)N(C)C(=O)[C@H](CC(C)C)NC(=O)C(C)(C)N(C)C1=O` [Compound 1305] ([NMeL]I[Sar][Sar][NMePhe(4-Cl)][Sar][Phe(4-F)][Nle][NMeAib]L[NMeD]-Piperidide; lactam N-11), the IC50 was over 500 nM.

With `CC[C@H](C)[C@@H]1NC(=O)[C@H](CC(C)C)N(C)C(=O)C[C@@H](C)N(C)C(=O)[C@H](CC(C)C)NC(=O)C(C)(C)N(C)C(=O)[C@H](CC(C)C)NC(=O)[C@H](CCc2ccc(C(F)(F)F)c(Cl)c2)NC(=O)CN(C)C(=O)[C@H](Cc2ccc(C(F)(F)F)cc2)N(C)C(=O)CN(C)C(=O)CN(C)C1=O` [Compound 1396] (cyclo(I[Sar][Sar][NMePhe(4-CF3)][Sar][hPhe(3-Cl-4-CF3)]L[NMeAib]L[NMedβ3hAla][NMeL])), the IC50 was over 500 nM.

As to `CC[C@H](C)[C@@H]1NC(=O)[C@H](CC(C)C)N(C)C(=O)C[C@@H](C(=O)N2CCCCC2)N(C)C(=O)[C@H](CC(C)C)N(C)C(=O)C(C)(C)NC(=O)[C@H](COCC(C)(C)O)N(C)C(=O)[C@H](CCc2ccc(C(F)(F)F)c(Cl)c2)NC(=O)CN(C)C(=O)[C@H](COCCC(C)C)N(C)C(=O)CN(C)C(=O)CN(C)C1=O` [Compound 1541] ([NMeL]I[Sar][Sar][NMeS](Isopentyl)[Sar][hPhe(3-Cl-4-CF3)][NMeS](CH2CMe2OH)[Aib][NMeL][NMeD]-Piperidide; lactam N-11), the IC50 is over 500 nM.

Consider `CC[C@H](C)[C@@H]1NC(=O)[C@H](CC(C)C)N(C)C(=O)C[C@@H](C)NC(=O)[C@H](C(C)C)N(C)C(=O)C2(CCCC2)NC(=O)[C@@H]2CCCN2C(=O)[C@H](CCc2ccc(C(F)(F)F)c(Cl)c2)NC(=O)CN(C)C(=O)[C@H](CC2CCCCC2)N(C)C(=O)CN(CC)C(=O)CN(C)C1=O` [Compound 504] (cyclo([Ac5c][NMeV][d(β3hA)][NMeL]I[Sar][NEtG][NMeCha][Sar][hPhe(3-Cl-4-CF3)]P)), for which the IC50 is over 500 nM.

In the case of `CC[C@@H]1C(=O)NC2(CCCC2)C(=O)N(C)[C@@H](C(C)C)C(=O)N(C)[C@H](C(=O)N2CCCCC2)CC(=O)N(C)[C@@H](CC(C)C)C(=O)N[C@@H]([C@@H](C)CC)C(=O)N(C)[C@@H](C)C(=O)N2CC[C@H]2C(=O)N(C)[C@@H](CC2CCCCC2)C(=O)N(C)CC(=O)N[C@@H](CCc2ccc(C(F)(F)F)c(Cl)c2)C(=O)N1C` [Compound 1438] ([NMeL]I[NMeA][Aze][NMeCha][Sar][hPhe(3-Cl-4-CF3)][dNMeAbu][Ac5c][NMeV][NMeD]-Piperidide; lactam N-11), the IC50 is over 500 nM.

As to `CCCC[C@@H]1NC(=O)[C@](C)(Cc2cccc(I)c2)NC(=O)CN(C)C(=O)[C@H](Cc2ccc(Cl)cc2)N(C)C(=O)CN(C)C(=O)CN(C)C(=O)[C@H]([C@@H](C)CC)NC(=O)[C@H](CC(C)C)N(C)C(=O)C[C@@H](C(=O)N2CCCCC2)N(C)C(=O)[C@H](CC(C)C)NC(=O)C(C)(C)N(C)C1=O` [Compound 1202] ([NMeL]I[Sar][Sar][NMePhe(4-Cl)][Sar][X105][Nle][NMeAib]L[NMeD]-Piperidide; lactam N-11), the IC50 is over 500 nM.

With `CC[C@H](C)[C@@H]1NC(=O)CCNC(=O)[C@H](Cc2ccc(F)cc2)N(C)C(=O)[C@H](C2CCCCC2)N(C)C(=O)C2(CCCC2)NC(=O)[C@@H]2CCCN2C(=O)[C@H](CCc2ccc(C(F)(F)F)c(Cl)c2)NC(=O)CN(C)C(=O)[C@H](CC2CCCCC2)N(C)C(=O)CN(C)C(=O)CN(C)C1=O` [Compound 528] (cyclo([Ac5c][NMeChg][NMePhe(4-F)][βAla]I[Sar][Sar][NMeCha][Sar][hPhe(3-Cl-4-CF3)]P)), the IC50 was over 500 nM.

Regarding `CC[C@H](C)[C@@H]1NC(=O)[C@H](CC(C)C)N(C)C(=O)C[C@@H](C(=O)N2CCCCC2)N(C)C(=O)[C@H](C2CCCCC2)N(C)C(=O)C2(CCCC2)NC(=O)[C@@H]2Cc3ccccc3N2C(=O)[C@H](CCc2ccc(C(F)(F)F)c(Cl)c2)NC(=O)CN(C)C(=O)[C@H](CC2CCCCC2)N(C)C(=O)[C@@H]2CCN2C(=O)[C@H](C)N(C)C1=O` [Compound 812] ([NMeL]I[NMeA][Aze][NMeCha][Sar][hPhe(3-Cl-4-CF3)][X72][Ac5c][NMeChg][NMeD]-Piperidide; lactam N-11), the IC50 was over 500 nM.

Turning to `CC[C@H](C)[C@@H]1NC(=O)[C@H](CC(C)C)N(C)C(=O)C[C@@H](C)N(C)C(=O)[C@H]([C@@H](C)CC)N(C)C(=O)C2(CCCC2)NC(=O)[C@@H]2CC(F)(F)CN2C(=O)[C@H](CCc2cc(F)c(C(F)(F)F)c(F)c2)NC(=O)CN(C)C(=O)[C@H](Cc2ccc(C(F)(F)F)cc2)N(C)C(=O)[C@@H]2CCN2C(=O)[C@H](C)N(C)C1=O` [Compound 863] (cyclo([Ac5c][NMeI][NMedβ3hAla][NMeL]I[NMeA][Aze][NMePhe(4-CF3)][Sar][hPhe(3,5-F2-4-CF3)][Pro(4,4-F2)])), the IC50 was at most 20 nM.
